Common to all, as to type: cell-based
The subject of assay [1] is Hep3B cells. Put plainly: Hep3B cell killing experiment (CellTiter-Glo cell viability). As to conditions: Homo sapiens, 48 h incubation, CTG luminescence. How it is done:
Hep3B cell lines were purchased from ATCC (Cat #ATCC® HB-8064™), EMEM media were purchased from ATCC (Cat #ATCC® 30-2003™), FBS was purchased from Gibco (Cat #10091148), celltiter-glo luminescent cell viability assay was purchased from promega (Cat #G7572), and 96-well plates were purchased from coming (Cat #3610).
The effect of compounds on the growth of Hep3B cells was determined by measuring cell viability and growth rate. Firstly, the cells were digested with pancreatin, and the digestion was then terminated with medium. The cells were centrifuged, and the supernatant was discarded. The centrifuged cells were resuspended in a fresh complete medium, and the cell density was adjusted to 5×10^4 cells/mL. The resuspended cells were inoculated into two identical opaque 96-well cell culture plates at 100 μL of cell suspension per well, and the cell culture plates were incubated in a cell incubator at 37° C. overnight. The next day, dilutions (20 μL) of compounds with different concentrations were added. After one of the cell plates was cooled to room temperature, 60 μL of CTG reagent was added. The luminescence values were read on the instrument as G0. The other one was incubated in a cell incubator for 48 h. After 48 h, 60 μL of CTG reagent was added, and the luminescence values were read on the instrument as G3.
(§1) According to the corresponding proliferation rate and concentration of each gradient concentration well, a gradient curve of cell proliferation was fitted using XLFit software, and the GI50 values of compounds were calculated.
(ATP-based viability assays read luminescence as a measure of living cells.)

Assay [2] deals with Raji cells. Put plainly: Raji cell killing experiment (CellTiter-Glo cell viability). The following applies: Homo sapiens, 48 h incubation, CTG luminescence. How it is done: Raji cell lines were purchased from ATCC (Cat #ATCC® CCL-86™), RPMI1640 media were purchased from ATCC (Cat #ATCC® 30-2001™), FBS was purchased from Gibco (Cat #10091148), celltiter-glo luminescent cell viability assay was purchased from promega (Cat #G7572), and 96-well plates were purchased from coming (Cat #3610).
(§2) The effect of compounds on the growth of Raji cells was determined by measuring cell viability and growth rate. Firstly, cells in the logarithmic growth phase were collected and centrifuged, and the culture supernatant was discarded. The centrifuged cells were resuspended in a fresh complete medium, and the cell density was adjusted to 5×10^4 cells/mL. The resuspended cells were inoculated into two identical opaque 96-well cell culture plates at 100 μL of cell suspension per well, and the cell culture plates were incubated in a cell incubator at 37° C. for 4 h. After 4 h, dilutions (20 μL) of compounds with different concentrations were added. After one of the cell plates was cooled to room temperature, 60 μL of CTG reagent was added, and the luminescence values were read on the instrument as G0. The other one was incubated in a cell incubator for 48 h. After 48 h, 60 μL of CTG reagent was added, and the luminescence values were read on the instrument as G3.
as §1

Assay [3] concerns Jurkat cells. Put plainly: Jurkat cell killing experiment (CellTiter-Glo cell viability). As to conditions: Homo sapiens, 48 h incubation, CTG luminescence. How it is done:
Jurkat cell lines were purchased from ATCC (Cat #ATCC® TIB-152™), RPMI1640 media were purchased from ATCC (Cat #ATCC® 30-2001™), FBS was purchased from Gibco (Cat #10091148), celltiter-glo luminescent cell viability assay was purchased from promega (Cat #G7572), and 96-well plates were purchased from coming (Cat #3610).
as §2, with “Jurkat” for “Raji”
as §1

For assay [4], the system named is HL60 cells. Put plainly: HL60 cell killing experiment (CellTiter-Glo cell viability). The following applies: Homo sapiens, HL-60, 48 h incubation, CTG luminescence. Summed up:
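Cells seeded at 5×10^4 cells/mL, dosed after 4 h at 37 °C, then grown for 48 h. CellTiter-Glo luminescence read at the time of dosing (G0) and after 48 h (G3). GI50 fitted from proliferation rate versus concentration.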

Assay [5] has as its system NCI-H929 cells. Description: NCI-H929 cell killing experiment (CellTiter-Glo cell viability). The following applies: Homo sapiens, 48 h incubation, CTG luminescence. How it is done: NCI-H929 cell lines were purchased from ATCC (Cat #ATCC® CRL-9068™), RPMI1640 media were purchased from ATCC (Cat #ATCC® 30-2001™), FBS was purchased from Gibco (Cat #10091148), celltiter-glo luminescent cell viability assay was purchased from promega (Cat #G7572), and 96-well plates were purchased from coming (Cat #3610).
as §2, with “2. Method The effect” for “The effect”, “growth of NCI-H929 cells was” for “growth of Raji cells was”
as §1

The target in assay [6] is T1, GSPT1 (Homo sapiens, UniProt P15170+Q96SW2).
T1 construct: host or cells: HEK293
Put plainly: Degradation of GSPT1 by the compounds (HiBiT signal in GSPT1/HEK293 hibit cells). The following applies: 6 h incubation, Nano Glo HiBiT Lytic Detection. Summed up:
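HEK293 cells with HiBiT-tagged GSPT1 seeded overnight, then treated with serial compound dilutions for 6 h at 37° C. Remaining GSPT1 measured by HiBiT lytic luminescence; DC50 from fitted degradation-concentration curve.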
Background: The HiBiT peptide binds its large partner to form an active luciferase.

Assay [7] concerns SU-DHL-2 cells. Put plainly: SU-DHL-2 cell killing experiment (CellTiter-Glo cell viability). As to conditions: Homo sapiens, 48 h incubation, CTG luminescence. How it is done:
SU-DHL-2 cell lines were purchased from ATCC (Cat #ATCC® CRL-2956™), RPMI1640 media were purchased from ATCC (Cat #ATCC® 30-2001™), FBS was purchased from Gibco (Cat #10091148), celltiter-glo luminescent cell viability assay was purchased from promega (Cat #G7572), and 96-well plates were purchased from coming (Cat #3610).
as §2, with “SU-DHL-2” for “Raji”
as §1

The subject of assay [8] is Toledo cells. Description: Toledo cell killing experiment (CellTiter-Glo cell viability). As to conditions: Homo sapiens, 48 h incubation, CTG luminescence. As for the experimental part: Toledo cell lines were purchased from ATCC (Cat #ATCC® CRL-2631™), RPMI1640 media were purchased from ATCC (Cat #ATCC® 30-2001™), FBS was purchased from Gibco (Cat #10091148), celltiter-glo luminescent cell viability assay was purchased from promega (Cat #G7572), and 96-well plates were purchased from coming (Cat #3610).
as §2, with “Toledo” for “Raji”
as §1

For assay [9], the system named is THP-1 cells. Description: THP-1 cell killing experiment (CellTiter-Glo cell viability). The following applies: Homo sapiens, 48 h incubation, CTG luminescence. As for the experimental part: THP-1 cell lines were purchased from ATCC (Cat #ATCC® TIB-202™), RPMI1640 media were purchased from ATCC (Cat #ATCC® 30-2001™), FBS was purchased from Gibco (Cat #10091148), celltiter-glo luminescent cell viability assay was purchased from promega (Cat #G7572), and 96-well plates were purchased from coming (Cat #3610).
as §2, with “THP-1” for “Raji”
as §1

T1 sequence (P15170 whole entry): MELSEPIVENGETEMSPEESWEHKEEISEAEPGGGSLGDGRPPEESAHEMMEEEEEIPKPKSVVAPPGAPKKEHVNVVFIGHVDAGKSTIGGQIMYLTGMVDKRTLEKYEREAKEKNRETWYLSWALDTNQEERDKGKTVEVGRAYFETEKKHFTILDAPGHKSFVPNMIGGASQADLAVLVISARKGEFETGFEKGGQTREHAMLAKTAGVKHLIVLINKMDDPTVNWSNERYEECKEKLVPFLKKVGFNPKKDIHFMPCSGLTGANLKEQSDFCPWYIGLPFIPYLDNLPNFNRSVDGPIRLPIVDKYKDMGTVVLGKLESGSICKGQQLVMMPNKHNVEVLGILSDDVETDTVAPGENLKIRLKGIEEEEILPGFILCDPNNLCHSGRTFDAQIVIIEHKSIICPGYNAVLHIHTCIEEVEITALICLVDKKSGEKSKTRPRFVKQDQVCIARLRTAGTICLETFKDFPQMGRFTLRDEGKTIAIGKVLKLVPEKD
T1 sequence (Q96SW2 whole entry): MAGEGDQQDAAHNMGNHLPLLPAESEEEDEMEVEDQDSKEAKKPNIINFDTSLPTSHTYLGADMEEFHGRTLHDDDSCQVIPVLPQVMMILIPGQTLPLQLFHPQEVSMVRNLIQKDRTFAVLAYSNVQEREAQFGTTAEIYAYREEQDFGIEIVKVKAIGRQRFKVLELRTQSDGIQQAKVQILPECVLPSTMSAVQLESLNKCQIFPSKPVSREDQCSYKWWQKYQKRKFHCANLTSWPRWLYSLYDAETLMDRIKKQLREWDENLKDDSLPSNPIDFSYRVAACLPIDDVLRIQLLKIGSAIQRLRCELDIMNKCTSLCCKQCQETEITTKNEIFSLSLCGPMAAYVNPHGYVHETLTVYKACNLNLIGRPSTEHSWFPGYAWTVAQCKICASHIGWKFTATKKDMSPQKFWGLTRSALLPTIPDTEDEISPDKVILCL
T1 sequence (Q16531 whole entry partner): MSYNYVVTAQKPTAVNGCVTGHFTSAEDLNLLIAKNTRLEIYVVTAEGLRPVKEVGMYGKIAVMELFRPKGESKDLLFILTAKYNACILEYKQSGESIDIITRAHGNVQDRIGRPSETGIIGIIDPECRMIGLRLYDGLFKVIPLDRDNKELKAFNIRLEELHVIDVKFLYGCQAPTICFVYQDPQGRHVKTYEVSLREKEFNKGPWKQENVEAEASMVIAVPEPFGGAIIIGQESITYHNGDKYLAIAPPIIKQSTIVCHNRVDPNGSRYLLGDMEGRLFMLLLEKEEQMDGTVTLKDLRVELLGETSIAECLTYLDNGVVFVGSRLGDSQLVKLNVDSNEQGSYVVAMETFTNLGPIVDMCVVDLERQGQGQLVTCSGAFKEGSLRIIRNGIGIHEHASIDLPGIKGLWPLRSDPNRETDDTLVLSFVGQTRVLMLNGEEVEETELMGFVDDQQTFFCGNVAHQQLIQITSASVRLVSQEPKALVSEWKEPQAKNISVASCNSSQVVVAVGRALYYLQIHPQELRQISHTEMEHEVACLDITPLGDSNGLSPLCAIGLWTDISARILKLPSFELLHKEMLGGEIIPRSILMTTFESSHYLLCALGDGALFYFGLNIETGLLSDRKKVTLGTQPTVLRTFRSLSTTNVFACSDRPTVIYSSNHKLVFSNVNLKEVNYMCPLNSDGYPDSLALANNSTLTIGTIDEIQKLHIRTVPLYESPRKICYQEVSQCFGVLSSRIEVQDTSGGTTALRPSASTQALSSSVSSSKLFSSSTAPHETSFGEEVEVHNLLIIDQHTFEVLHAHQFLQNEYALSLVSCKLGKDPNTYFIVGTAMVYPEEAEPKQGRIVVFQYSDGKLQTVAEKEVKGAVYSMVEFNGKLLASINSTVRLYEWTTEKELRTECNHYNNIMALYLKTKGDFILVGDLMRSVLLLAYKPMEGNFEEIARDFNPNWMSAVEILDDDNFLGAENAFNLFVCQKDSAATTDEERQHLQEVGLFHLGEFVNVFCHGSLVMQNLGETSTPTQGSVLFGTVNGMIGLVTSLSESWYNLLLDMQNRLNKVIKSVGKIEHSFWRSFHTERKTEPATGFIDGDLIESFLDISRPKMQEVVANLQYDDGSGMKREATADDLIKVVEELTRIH

Usually GI50 stands for the concentration at which growth is held to half of that of the control. What is called DC50 is the midpoint of the concentration-degradation curve. A lower DC50 goes with degradation at low concentration. Take `O=C1CCC(N2C(=O)c3cccc(NCc4cccc(C(=O)NC5CCC(c6nc7ccccc7o6)CC5)c4)c3C2=O)C(=O)N1` (centres unmarked) [Example 16]: the GI50 in [1] was 1.36 nM; in [2], 362 nM; in assay [3], 4.07 nM; in [4] it was less than 100 nM; in [5], 0.96 nM. Besides, the DC50 in assay [6] is less than 100 nM.

`Cn1c2cnccc2nc1[C@H]1CC[C@H](N2Cc3ccc(CNc4cccc5c4C(=O)N(C4CCC(=O)NC4=O)C5=O)cc3C2=O)CC1` (some centres unmarked) [Example 70]: the GI50 in assay [1] was 5.21 nM; in [7], 22.3 nM; in assay [4], less than 100 nM; in assay [5], 1.63 nM. Moreover, the 50% degradation concentration (DC50) in assay [6] was less than 100 nM.

`COc1ccc2c(c1)nc([C@H]1CC[C@H](COc3cc(CNc4cccc5c4C(=O)N(C4CCC(=O)NC4=O)C5=O)ccn3)CC1)n2C` (some centres unmarked) [Example 75]: the GI50 in assay [2] is 1.79 nM; in assay [3] it was 0.4 nM; in assay [7], 0.93 nM; in assay [4], less than 100 nM; in assay [8], 0.45 nM. In [6], the DC50 was less than 100 nM.

For the compound `O=C1CCC(N2C(=O)c3cccc(NCc4cccc(NC(=O)[C@H]5CC[C@H](c6nc7cccnc7s6)CC5)c4F)c3C2=O)C(=O)N1` (some centres unmarked) [Example 81], the concentration for 50% growth inhibition (GI50) is 11.4 nM in assay [3]; 5.62 nM in assay [7]; less than 100 nM in [4]; 0.33 nM in assay [5]; 4.03 nM in [8]. This compound also had a DC50 in [6] of less than 100 nM.

`CC(C)n1c(C2CCC(NC(=O)c3cccc(CNc4cccc5c4C(=O)N(C4CCC(=O)NC4=O)C5=O)c3)CC2)nc2cccnc21` (centres unmarked) [Example 83]: the GI50 was 7.88 nM in assay [1], less than 100 nM in assay [4], 5.49 nM in assay [5] and 67.6 nM in assay [9]. The same compound registered a DC50 in assay [6] of less than 100 nM.

As to `COc1ccc(CNc2cccc3c2C(=O)N(C2CCC(=O)NC2=O)C3=O)cc1C(=O)N[C@H]1CC[C@H](c2nc3ccncc3n2C)CC1` (some centres unmarked) [Example 89], the GI50 in [3] is 0.5 nM; in assay [7], 1.42 nM; in assay [4], less than 100 nM; in [9], 5.65 nM. The same compound came in with a DC50 in [6] of less than 100 nM.

As to `COc1ccc2c(c1)nc([C@H]1CC[C@H](NC(=O)c3cc(CNc4cccc5c4C(=O)N(C4CCC(=O)NC4=O)C5=O)ccn3)CC1)n2C` (some centres unmarked) [Example 90], the GI50 is 5.88 nM in assay [2], less than 100 nM in assay [4], 0.93 nM in assay [5] and 4.14 nM in [9]. This compound also yielded a 50% degradation concentration (DC50) in assay [6] of less than 100 nM.

Turning to `COc1ccc2nc([C@H]3CC[C@H](C(=O)Nc4cccc(CNc5cccc6c5C(=O)N(C5CCC(=O)NC5=O)C6=O)c4)CC3)sc2n1` (some centres unmarked) [Example 97], the GI50 was 0.46 nM in assay [1]; 3.43 nM in assay [2]; 1.51 nM in assay [7]; less than 100 nM in assay [4]; 2.58 nM in assay [9]. This compound also gave a 50% degradation concentration (DC50) in assay [6] of less than 100 nM.
